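How tested: cells in 96-well plates exposed to compound for 48 hours at five concentrations. The concentration for 50% growth inhibition is given as GI50. TGI marks complete inhibition of growth.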
Columns and labels:
Assay in all cases: inhibition of tumour cell growth, NCI panel, 48 h
[1] = tested on: 786-0 renal
[2] = tested on: HCC-2998 colon
[3] = tested on: HCT-116 colon
[4] = tested on: HT29 colon
[5] = tested on: IGROV1 ovarian
[6] = tested on: KM12 colon
[7] = tested on: OVCAR-4 ovarian
[8] = tested on: OVCAR-5 ovarian
[9] = tested on: SNB-75 CNS
[10] = tested on: UACC-257 melanoma

SMILES | GI50 [1] | TGI [1] | GI50 [2] | TGI [2] | GI50 [3] | TGI [3] | GI50 [4] | TGI [4] | GI50 [5] | TGI [5] | GI50 [6] | TGI [6] | GI50 [7] | TGI [7] | GI50 [8] | TGI [8] | GI50 [9] | TGI [9] | GI50 [10] | TGI [10]
CCCCCCn1c2c(c3c(O)cccc31)C(=O)c1ccccc1-2 | 17.1 µM | 32.4 µM | 15.7 µM | 29.4 µM | 17.2 µM | 30.9 µM | 35.6 µM | > 100 µM | 19.2 µM | 39.6 µM | 17.6 µM | 34.4 µM | 25 µM | 53 µM | 18.6 µM | 32.8 µM | 46.3 µM | > 100 µM | 15.1 µM | 32.9 µM
Oc1[nH]c2ccccc2c1/C=c1/ccc2c(c1)N=C(c1cc(F)cc(F)c1)N=2 | 10 µM | 22 µM | 5.65 µM | 20.7 µM | 2.43 µM | 8.06 µM | 3.6 µM | 16.2 µM | 10.5 µM | 28.1 µM | 4.36 µM | 19 µM | 3.33 µM | 13.5 µM | 16.8 µM | 36.4 µM | 3.22 µM | 17.7 µM | 10.6 µM | 26.4 µM
O=Cc1cn(S(=O)(=O)c2ccccc2)c2ccccc12 | – | > 100 µM | – | > 100 µM | – | 40.1 µM | – | > 100 µM | – | > 100 µM | – | > 100 µM | – | > 100 µM | – | > 100 µM | – | > 100 µM | – | > 100 µM
CC/C(=C(/CC)c1ccc(O)cc1)c1ccc(O)cc1 | 5.59 µM | 18.6 µM | 10.7 µM | 23.3 µM | 4.92 µM | 15.9 µM | 5.16 µM | 17.9 µM | 12.4 µM | 52.3 µM | 3.64 µM | 12.9 µM | 8.06 µM | 37 µM | 14.1 µM | 30.1 µM | 2.2 µM | 6.48 µM | 7.04 µM | 22.7 µM
COc1ccc(Nc2ncccc2C(=O)NCc2cn(Cc3cccc(Oc4ccccc4)c3)nn2)c(OC)c1 | 3.92 µM | > 100 µM | 2.64 µM | > 29 µM | 1.66 µM | > 100 µM | 1.47 µM | 13.5 µM | 5.18 µM | > 100 µM | 1.11 µM | > 100 µM | 5.27 µM | > 100 µM | 6.72 µM | > 100 µM | 3.64 µM | > 84.5 µM | 13.4 µM | > 100 µM
COC1/C=C/OC2(C)Oc3c(C)c(O)c4c(O)c(c(C=NOC(c5ccccc5)c5ccccc5)c(O)c4c3C2=O)NC(=O)/C(C)=C/C=C/C(C)C(O)C(C)C(O)C(C)C(OC(C)=O)C1C (stereo not given) | 1.29 µM | 3.06 µM | 0.97 µM | 1.93 µM | 0.97 µM | 1.86 µM | 1.01 µM | 2.13 µM | 1.72 µM | 5.54 µM | 0.992 µM | 1.96 µM | 1.63 µM | 6.01 µM | 0.984 µM | 2.49 µM | 1.34 µM | 5.73 µM | 1.14 µM | 3.08 µM
COc1cc([C@@H]2c3cc4c(cc3[C@@H](NC(=O)c3ccc(OC(C)=O)cc3)C3COC(=O)[C@@H]32)OCO4)cc(OC)c1O (stereo not given in full) | – | 3.47 µM | – | 14.7 µM | – | 15.3 µM | – | 29.5 µM | – | 7.77 µM | – | 11.9 µM | – | > 100 µM | – | 22.4 µM | – | 5.86 µM | – | 31.9 µM

Reference: PubChem BioAssay (NCI)
